The text below walks through data of patent US9511055B2, “Angiotensin in treating brain conditions” (TARIX PHARMACEUTICALS LTD., priority 2012, dated 2016).

This assay has as its system MCAO rat model of ischemic stroke. Briefly: Body swing test after tMCAO. The format is in vivo. Particulars: for body swing test performance vs control: continuous s.c. Alzet pump; for body swing test performance vs vehicle control: Example 2, 28 days. The procedure: For the purposes of this example, Transient middle cerebral artery occlusion (tMCAO) procedure Day is defined as “Day 1” in this study. On the day of surgery anesthesia were induced with 4% isoflurane in a mixture of 70% N2O and 30% O2 and maintained with 1.5-2% isoflurane.
The tMCAO procedures were performed according to the method described R. Schmid-Elsaesser et al. Briefly, the right CCA (Common Carotid Artery) was exposed through a midline neck incision and carefully dissected free from surrounding nerves and fascia—from its bifurcation to the base of the skull. The occipital artery branches of the ECA (External Carotid Artery) were then isolated, and these branches were dissected and coagulated. The ECA was dissected further distally and coagulated along with the terminal lingual and maxillary artery branches, which was then divided. The ICA (Internal Carotid Artery) was isolated and carefully separated from the adjacent vagus nerve, and the pterygopalatine artery was ligated close to its origin with a 5-0 nylon suture (SMI, Belgium). Next, a 4-0 silk suture was tied loosely around the mobilized ECA stump, and a 4 cm length of 4-0 monofilament nylon suture (the tip of the suture was blunted by using a flame, and the suture was coated with polylysine, prior to insertion) was inserted through the proximal ECA into the ICA and thence into the circle of Willis, effectively occluding the MCA. The surgical wound was closed and the animals were returned to their cages to recover from anesthesia. One hour and a half after occlusion rats were re-anesthetized, the monofilament was withdrawn to allow reperfusion, the surgical wound was closed and rats were returned to their cages.
Animals were subjected to a modified Modified Neurological Rating Scale (mNRS) at 24 hours post reperfusion. Only animals with an overall score of ≧10 are included in this study. Animals were allocated into the test groups, according to the mNRS results on day 2, in order to have similar distribution of rats performance between groups. Started on day 2, 24 hours post-surgery, each animal is implanted subcutaneously with osmotic Alzet pump and is treated by continuous PanCyte administration (2.5 mg/ml or 25 mg/ml in PBS; SEQ ID NO:22).
The rat was held approximately one inch from the base of its tail. It was then elevated to an inch above a surface of a table. The rat was held in the vertical axis, defined as no more than 10° to either the left or the right side. A swing was recorded whenever the rat moved its head out of the vertical axis to either side. Before attempting another swing, the rat had to return to the vertical position for the next swing to be counted. Twenty (20) total swings were counted. A normal rat typically has an equal number of swings to either side. Following focal ischemia, rats tend to swing to the contralateral side (left side in this example). Body swing scores are expressed as a percentage of rightward over total swings. […] Four groups were analyzed in this test, a control group (receiving only PBS for 49 days), a group receiving 50 μg/kg PanCyte for 49 days, a group receiving 500 μg/kg PanCyte for 49 days, and a group receiving 50 μg/kg PanCyte for 14 days.
Animals were subjected to a modified Modified Neurological Rating Scale (mNRS) at 24 hours post reperfusion. Only animals with an overall score of ≧10 were included in this study. Animals were allocated into the test groups, according to the mNRS results on day 2, in order to have similar distribution of rats performance between groups. Starting on day 2, 24 hours post-surgery, animals in groups 4, 5 and 7 were implanted subcutaneously with an osmotic Alzet pump and treated with either 500 μg/kg TXA127 (SEQ ID NO:1), 500 μg/kg PanCyte (SEQ ID NO:22), or 50 μg/kg Linear PanCyte (SEQ ID NO:6). Animals in groups 2, 3 and 6 received 500 μg/kg or 1,000 μg/kg TXA127 or 500 μg/kg PanCyte, administered subcutaneously via daily injection. […]

`CCC(C)C1NC(=O)C(NC(=O)C(NC(=O)C(CCCNC(=N)N)NC(=O)C(N)CC(=O)O)C(C)C)CSCC(C(=O)O)NC(=O)C(Cc2c[nH]cn2)NC1=O` (stereo not drawn) [PanCyte, Asp^1-Arg^2-Val^3-Ser^4-Ile^5-His^6-Cys^7 (SEQ ID NO: 22)]: the “body swing test performance vs control” value runs as follows: (Example 1, 50 μg/kg for 14 days, from day 29) “showed statistical significance beginning on day 29”; (Example 1, each PanCyte group (50 μg/kg 49 days, 500 μg/kg 49 days, 50 μg/kg 14 days), day 36) “improved performance on the test by day 36”. Further, the “body swing test scores vs control” value (Example 1, all treatment groups, from day 8) is “trend toward improved scores beginning on day 8”. For the same molecule, the “body swing test performance vs vehicle control” value is “significant improvement in performance by Day 28” (500 μg/kg daily s.c. injection, Day 28); “showed improvement by Day 21” (PanCyte Alzet group, 500 μg/kg s.c. Alzet pump, Day 21); “significant improvement in performance by Day 28” (PanCyte Alzet group, 500 μg/kg s.c. Alzet pump, Day 28).
